Measured values: patent US6914045B2, “Glycopeptide antibiotics” (Wyeth Holdings Corporation, priority 2001, dated 2005)
Numbered stars: 1 amine (or outer) side, 2 acyl side, 3 side chain; on linkers, the order of the positions; unused ones are H or OH. Square brackets hold non-standard residues; d marks the D form. Peptide text beside a SMILES is read from it. * marks the point of attachment. ξ: configuration not given here. X6 = N=C1NCC(CC(N[*:1])C(=O)[*:2])N1C1OC(CO)C(O)C(O)C1O; ξEnduracididine(βξ-OH,4'ξ) = N=C1NCC(C(O)C(N)C(=O)O)N1; X2 = OCC1OC(OC2C(CO)OC(*)C(O)C2O)C(O)C(O)C1O; ξPhe(βξ-Me) = CC(c1ccccc1)C(N)C(=O)O

What was measured:
Test in all cases: in vitro antibacterial evaluation, MIC by broth dilution
Type in all cases: cell-based
Enterococcus sp. = settings: broth dilution, 18 hours at 35° C.
In short: (§1)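 Inoculum 5×10^5 CFU/mL; concentrations 64 to 0.06 μg/mL; MIC defined as lowest inhibitory level. Conducted by broth dilution under NCCLS guidelines.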

Staphylococcus sp. = settings: broth dilution, 18 hours at 35° C.
In short: as §1

Streptococcus sp. = settings: broth dilution, 18 hours at 35° C.
In short: as §1

Escherichia coli = settings: 18 hours at 35° C.
In short: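 Read-out: the lowest concentration at which the test strain fails to grow. Serial dilutions (64-0.06 μg/mL) in Muller-Hinton II […], 5×10^5 CFU/mL inoculum, NCCLS M7-A2 procedure.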

CC(c1ccccc1)C1NC(=O)CNC(=O)C(CO)NC(=O)C(CC2CNC(=N)N2C2OC(CO)C(O)C(O)C2O)NC(=O)C(C(O)C2CNC(=N)N2)NC(=O)C(Cc2ccc(OC3OC(CO)C(OC4OC(CO)C(O)C(O)C4O)C(O)C3O)cc2)NC1=O (stereo not drawn) [Example 284b, Cyclo[3-(3-hexopyranosyl-2-iminoimidazolidin-4-yl)-alanylserylglycl-β-methylphenylalanyl-O-(4-O-hexopyranosylhexopyranosyl)tyrosyl-3-(2-iminoimidazolidin-4-yl)seryl]] (cyclo(G[ξPhe(βξ-Me)]Y(X2)[ξEnduracididine(βξ-OH,4'ξ)][X6]S); configuration not given here)
>128 mg/L: MIC Enterococcus faecalis (ATCC 29212) (Enterococcus sp.; Enterococcus faecalis (ATCC 29212)) | MIC Enterococcus faecalis (GC 4553) (Enterococcus sp.; Enterococcus faecalis (GC 4553)) | MIC Enterococcus faecalis (GC 4554) (Enterococcus sp.; Enterococcus faecalis (GC 4554)) | MIC Enterococcus faecalis (GC 6189) (Enterococcus sp.; Enterococcus faecalis (GC 6189)) | MIC Enterococcus faecium (GC 2243) (Enterococcus sp.; Enterococcus faecium (GC 2243)) | MIC Enterococcus faecium (GC 4556) (Enterococcus sp.; Enterococcus faecium (GC 4556)) | MIC Enterococcus faecalis (ATCC 29212) (Enterococcus sp.; strain ATCC 29212) | MIC Enterococcus faecalis (GC 2242) (Enterococcus sp.; strain GC 2242) | MIC Enterococcus faecium (GC 2243) (Enterococcus sp.; strain GC 2243) | MIC Enterococcus faecalis (GC 2691) (Enterococcus sp.; strain GC 2691) | MIC Enterococcus faecalis (GC 3059) (Enterococcus sp.; strain GC 3059) | MIC Enterococcus faecalis (GC 4552) (Enterococcus sp.; strain GC 4552) | MIC Enterococcus faecalis (GC 4553) (Enterococcus sp.; strain GC 4553) | MIC Enterococcus faecalis (GC 4554) (Enterococcus sp.; strain GC 4554) | MIC Enterococcus faecium (GC 4556) (Enterococcus sp.; strain GC 4556) | MIC Enterococcus faecalis (GC 6189) (Enterococcus sp.; strain GC 6189) | MIC Coagulase Negative Staphylococcus (GC 4547) (Staphylococcus sp.) | MIC Coagulase Negative Staphylococcus (GC 4548) (Staphylococcus sp.) | MIC Coagulase Negative Staphylococcus (GC 4549) (Staphylococcus sp.) | MIC Coagulase Negative Staphylococcus (GC 4551) (Staphylococcus sp.) | MIC Staphylococcus aureus (ATCC 29213) (Staphylococcus sp.) | MIC Staphylococcus aureus (GC 1131) (Staphylococcus sp.) | MIC Staphylococcus aureus (GC 3051) (Staphylococcus sp.) | MIC Staphylococcus aureus (GC 3053) (Staphylococcus sp.) | MIC Staphylococcus aureus (GC 4541) (Staphylococcus sp.) | MIC Staphylococcus aureus (GC 4542) (Staphylococcus sp.) | MIC Staphylococcus aureus (GC 4544) (Staphylococcus sp.) | MIC Staphylococcus aureus (GC 4545) (Staphylococcus sp.) | MIC Staphylococcus aureus-SMITH (GC 4543) (Staphylococcus sp.) | MIC Staphylococcus haemolyticus (GC 4546) (Staphylococcus sp.) | MIC Staphylococcus aureus (ATCC 29213) (Staphylococcus sp.; strain ATCC 29213) | MIC Staphylococcus aureus (GC 1131) (Staphylococcus sp.; strain GC 1131) | MIC Staphylococcus aureus (GC 3051) (Staphylococcus sp.; strain GC 3051) | MIC Staphylococcus aureus (GC 3053) (Staphylococcus sp.; strain GC 3053) | MIC Staphylococcus aureus (GC 4541) (Staphylococcus sp.; strain GC 4541) | MIC Staphylococcus aureus (GC 4542) (Staphylococcus sp.; strain GC 4542) | MIC Staphylococcus aureus (GC 4544) (Staphylococcus sp.; strain GC 4544) | MIC Staphylococcus aureus (GC 4545) (Staphylococcus sp.; strain GC 4545) | MIC Staphylococcus haemolyticus (GC 4546) (Staphylococcus sp.; strain GC 4546) | MIC Coagulase Negative Staphylococcus (GC 4547) (Staphylococcus sp.; strain GC 4547) | MIC Coagulase Negative Staphylococcus (GC 4548) (Staphylococcus sp.; strain GC 4548) | MIC Coagulase Negative Staphylococcus (GC 4549) (Staphylococcus sp.; strain GC 4549) | MIC Coagulase Negative Staphylococcus (GC 4551) (Staphylococcus sp.; strain GC 4551) | MIC Staphylococcus aureus-SMITH (GC 4543) (Staphylococcus sp.; strain SMITH GC 4543) | MIC Streptococcus pneumoniae (ATCC 6301) (Streptococcus sp.; strain ATCC 6301) | MIC Streptococcus pyogenes (GC 4563) (Streptococcus sp.; strain GC 4563) | MIC Streptococcus agalactiae (GC 4564) (Streptococcus sp.; strain GC 4564) | MIC Streptococcus pneumoniae (GC 4565) (Streptococcus sp.; strain GC 4565) | MIC Escherichia coli (ATCC 25922) (Escherichia coli; Escherichia coli (ATCC 25922)) | MIC Escherichia coli (GC 4559) (Escherichia coli; Escherichia coli (GC 4559)) | MIC Escherichia coli (GC 4560) (Escherichia coli; Escherichia coli (GC 4560))
128 mg/L: MIC Enterococcus avium (GC 4558) (Enterococcus sp.; Enterococcus avium (GC 4558)) | MIC Enterococcus faecium (GC 4557) (Enterococcus sp.; Enterococcus faecium (GC 4557)) | MIC Enterococcus faecium (GC 4557) (Enterococcus sp.; strain GC 4557) | MIC Enterococcus avium (GC 4558) (Enterococcus sp.; strain GC 4558) | MIC Streptococcus pneumoniae (GC 1894) (Streptococcus sp.; strain GC 1894)
